We go through 50 molecules from ChEMBL document CHEMBL3244320, “2-Acetylpyridine thiosemicarbazones. 1. A new class of potential antimalarial agents” (J Med Chem, 1979).

Assay type in all cases: functional
Conditions in all cases: route subcutaneous

For experiment [1], the system named is Plasmodium berghei. Put plainly: Antimalarial activity against Plasmodium berghei KBG 173 infected in ICR/HA Swiss mouse assessed as increase in mean survival time at 40 mg/kg, sc administered 72 hrs post infection.
In experiment [2] the test system is Plasmodium berghei. In words: Antimalarial activity against Plasmodium berghei KBG 173 infected in ICR/HA Swiss mouse assessed as increase in mean survival time at 160 mg/kg, sc administered 72 hrs post infection.
Experiment [3] deals with Plasmodium berghei. In words: Antimalarial activity against Plasmodium berghei KBG 173 infected in ICR/HA Swiss mouse assessed as increase in mean survival time at 640 mg/kg, sc administered 72 hrs post infection.
Experiment [4] relates to Plasmodium berghei. In words: Antimalarial activity against Plasmodium berghei KBG 173 infected in ICR/HA Swiss mouse assessed as increase in mean survival time at 80 mg/kg, sc administered 72 hrs post infection.
Experiment [5] concerns Plasmodium berghei. Put plainly: Antimalarial activity against Plasmodium berghei KBG 173 infected in ICR/HA Swiss mouse assessed as increase in mean survival time at 320 mg/kg, sc administered 72 hrs post infection.

As to `C/C(=N\NC(=S)Nc1cc(Cl)ccc1Cl)c1ccccn1`, the MST is -0.1 days with Plasmodium berghei [1], 0.1 days in the experiment on Plasmodium berghei [2] and 0.1 days with Plasmodium berghei [3].
`C/C(=N\NC(=S)Nc1ccc(Cl)c(Cl)c1)c1ccccn1`: the MST in the experiment with Plasmodium berghei [1], in the experiment on Plasmodium berghei [2] and in the experiment with Plasmodium berghei [3] was 0.5 days in each case.
For `C/C(=N\NC(=S)N1CC1)c1ccccn1`, the MST with Plasmodium berghei [1], with Plasmodium berghei [2] and in the experiment with Plasmodium berghei [3] was 0.1 days each time.
For the molecule `C/C(=N\NC(=S)Nc1cccc(Br)c1)c1ccccn1`, the MST in the experiment with Plasmodium berghei [1] is 0.1 days; in the experiment on Plasmodium berghei [2], 0.3 days; in the experiment with Plasmodium berghei [3], 0.9 days.
On to `C/C(=N\NC(=S)NCc1ccc(C)cc1)c1ccccn1`, for which the MST stood at 0.1 days in the experiment with Plasmodium berghei [1], 1.7 days in the experiment on Plasmodium berghei [4], 4.3 days in the experiment with Plasmodium berghei [2] and 5.7 days in the experiment with Plasmodium berghei [5].
For the molecule `CC/C(=N\NC(=S)Nc1ccc([N+](=O)[O-])cc1)c1ccccn1`, the MST in the experiment on Plasmodium berghei [1] is 0.1 days; in the experiment with Plasmodium berghei [2], 0.1 days; in the experiment with Plasmodium berghei [3] it was 0.3 days.
For the molecule `C/C(=N\NC(=S)Nc1ccccc1)c1ccccn1`, the MST is 3.1 days with Plasmodium berghei [1], 4.7 days in the experiment on Plasmodium berghei [4] and 11.1 days with Plasmodium berghei [2].
Regarding `C/C(=N\NC(=S)NCc1cccc(C)c1)c1ccccn1`, the MST with Plasmodium berghei [1] worked out at 0.3 days; in the experiment with Plasmodium berghei [2], 0.7 days; in the experiment with Plasmodium berghei [3], 6.5 days.
For `C/C(=N\N=C(/S)NCc1ccccc1)c1ccccn1` the same measures were 0.5 days, 3.7 days and 10.6 days.
On to `CC/C(=N\NC(=S)Nc1cccc(Cl)c1)c1ccccn1`, for which the MST in the experiment with Plasmodium berghei [1] was determined as 0.3 days; in the experiment with Plasmodium berghei [2] it was 0.3 days; with Plasmodium berghei [3] it was 0.5 days.
Take `C/C(=N\NC(=S)Nc1ccc(Br)cc1)c1ccccn1`: the MST is 0.3 days with Plasmodium berghei [1], 0.3 days with Plasmodium berghei [2] and 0.5 days in the experiment with Plasmodium berghei [3].
Regarding `CCCCc1ccc(NC(=S)N/N=C(\C)c2ccccn2)cc1`, the results for the MST in the experiment with Plasmodium berghei [1], in the experiment with Plasmodium berghei [2] and with Plasmodium berghei [3] were 0.3 days, 3.9 days and 9.9 days, respectively.
For `C/C(=N\NC(=S)NCc1ccc(Cl)c(Cl)c1)c1ccccn1` the same measures were 0.1 days, 0.5 days and 0.1 days.
For `C/C(=N\NC(=S)Nc1c2ccccc2nc2ccccc12)c1ccccn1` the same measures were 0.3 days, 0.3 days and 0.5 days.
As for `CC/C(=N\NC(=S)NC12CC3CC(CC(C3)C1)C2)c1ccccn1`, the MST was 0.3 days in the experiment with Plasmodium berghei [4], 3.7 days with Plasmodium berghei [2], 6.3 days in the experiment with Plasmodium berghei [5] and 9.1 days in the experiment with Plasmodium berghei [3].
With `C/C(=N\NC(=S)NC(c1ccccc1)(c1ccccc1)c1ccccc1)c1ccccn1`, the MST in the experiment on Plasmodium berghei [1], in the experiment with Plasmodium berghei [2] and in the experiment on Plasmodium berghei [3] was 0.1 days in each case.
For the molecule `COc1ccc(NC(=S)N/N=C(\C)c2ccccn2)cc1`, the MST in the experiment on Plasmodium berghei [1] amounted to 2.1 days; in the experiment on Plasmodium berghei [2] it was 9.7 days; with Plasmodium berghei [3], 1.7 days.
In the same order, the values of `CCOC(=O)CNC(=S)N/N=C(\CC)c1ccccn1` are 0.3 days, 0.3 days and 0.5 days.
On to `COc1ccc(NC(=S)N/N=C(\C)c2ccccn2)nn1`, for which the MST in the experiment on Plasmodium berghei [1] was found to be 0.1 days; in the experiment on Plasmodium berghei [2] it was 0.1 days; with Plasmodium berghei [3], 0.2 days.
Take `CC/C(=N\NC(=S)Nc1ccccc1)c1ccccn1`: the values for the MST in the experiment on Plasmodium berghei [1], in the experiment on Plasmodium berghei [4] and in the experiment with Plasmodium berghei [2] were 0 days, 1.2 days and 2.6 days, respectively.
Regarding `C/C(=N\NC(=S)NCc1cccc(Cl)c1)c1ccccn1`, the MST was 0 days in the experiment on Plasmodium berghei [4], 1.6 days in the experiment on Plasmodium berghei [2], 0 days with Plasmodium berghei [5] and -0.4 days in the experiment with Plasmodium berghei [3].
In the case of `C/C(=N\NC(=S)Nc1ccncc1)c1ccccn1`, the MST in the experiment on Plasmodium berghei [1] came out at 0.1 days; with Plasmodium berghei [2], 0.3 days; in the experiment on Plasmodium berghei [3] it was 0.9 days.
In the same order, the values of `C/C(=N\NC(=S)Nc1c(Cl)cccc1Cl)c1ccccn1` are 0.1 days, 0.9 days and 0.1 days.
For `C/C(=N\NC(=S)Nc1cc(Cl)c(Cl)cc1Cl)c1ccccn1`, the MST is -0.3 days with Plasmodium berghei [1], 0.1 days with Plasmodium berghei [2] and -0.1 days in the experiment on Plasmodium berghei [3].
In the same order, the values of `CC/C(=N\NC(=S)Nc1ccc(Br)cc1)c1ccccn1` are 0.3 days, 0.3 days and 0.7 days.
In the same order, the values of `C/C(=N\NC(=S)Nc1ccc(Cl)cc1Cl)c1ccccn1` are -0.1 days, 0.3 days and 0.7 days.
In the case of `CCOC(=O)CNC(=S)N/N=C(\C)c1ccccn1`, the MST was determined as 0.1 days with Plasmodium berghei [1], 0.1 days in the experiment with Plasmodium berghei [2] and 0.3 days with Plasmodium berghei [3].
Turning to `C/C(=N\NC(=S)NC(C)c1ccc(F)cc1)c1ccccn1` (stereo not given), the MST with Plasmodium berghei [1] was 1.1 days; in the experiment with Plasmodium berghei [4] it was 5.5 days; with Plasmodium berghei [2], 8.5 days; in the experiment on Plasmodium berghei [5] it was 5.2 days.
In the case of `C/C(=N\NC(=S)NCc1ccccn1)c1ccccn1`, the MST in the experiment on Plasmodium berghei [1] is 0.1 days; in the experiment on Plasmodium berghei [2] it was 0.3 days; in the experiment on Plasmodium berghei [3] it was 0.9 days.
For `CC/C(=N\NC(=S)Nc1ccccc1Cl)c1ccccn1` the same measures were 0.1 days, 0.1 days and 0.3 days.
In the same order, the values of `C/C(=N\NC(=S)Nc1ccc([N+](=O)[O-])cc1)c1ccccn1` are 0.1 days, 0.1 days and 0.5 days.
In the same order, the values of `C/C(=N\NC(=S)Nc1cccc(Cl)c1Cl)c1ccccn1` are -0.2 days, 0.2 days and 0.6 days.
In the case of `C/C(=N\NC(=S)Nc1ccc(F)cc1)c1ccccn1`, the MST in the experiment on Plasmodium berghei [1] is 1.3 days; in the experiment on Plasmodium berghei [4] it was 3.7 days; in the experiment on Plasmodium berghei [2], 3.9 days; in the experiment on Plasmodium berghei [5] it was 7.7 days.
As to `C/C(=N\NC(=S)Nc1ccc(O)cc1)c1ccccn1`, the MST in the experiment with Plasmodium berghei [1] was determined as 0.1 days; with Plasmodium berghei [2], 0.3 days; in the experiment with Plasmodium berghei [3], 0.6 days.
For the molecule `C/C(=N\NC(=S)NCc1ccncc1)c1ccccn1`, the MST turned out to be 0.3 days in the experiment with Plasmodium berghei [1], 0.4 days in the experiment on Plasmodium berghei [2] and 0 days with Plasmodium berghei [3].
As for `C/C(=N\NC(=S)Nc1ccc(Cl)c(Cl)c1Cl)c1ccccn1`, the values for the MST in the experiment with Plasmodium berghei [1], in the experiment with Plasmodium berghei [2] and in the experiment on Plasmodium berghei [3] were 0.1 days, 0.1 days and -0.3 days, respectively.
In the case of `C/C(=N\NC(=S)Nc1cccnc1)c1ccccn1`, the MST in the experiment with Plasmodium berghei [1] turned out to be 0.3 days; with Plasmodium berghei [2], 0.5 days; with Plasmodium berghei [3], 1.3 days.
In the same order, the values of `C/C(=N\NC(=S)NCc1ccc(Cl)cc1Cl)c1ccccn1` are 0.4 days, 1 days and 2 days.
On to `CCOC(=O)c1ccc(NC(=S)N/N=C(\C)c2ccccn2)cc1`, for which the figures for the MST in the experiment with Plasmodium berghei [1], in the experiment on Plasmodium berghei [2] and in the experiment on Plasmodium berghei [3] were 0.3 days, 0.3 days and 0.6 days, respectively.
In the case of `C/C(=N\NC(=S)Nc1ccc(S(=O)(=O)c2ccc(NC(=S)N/N=C(\C)c3ccccn3)cc2)cc1)c1ccccn1`, the MST was 0.1 days in the experiment with Plasmodium berghei [1], 0.1 days in the experiment on Plasmodium berghei [2] and 0.3 days in the experiment with Plasmodium berghei [3].
As to `C/C(=N\NC(=S)Nc1cccc([N+](=O)[O-])c1)c1ccccn1`, the MST is 0.1 days in the experiment with Plasmodium berghei [1], -0.3 days in the experiment with Plasmodium berghei [2] and -0.1 days in the experiment on Plasmodium berghei [3].
For the molecule `CCOC(=O)c1ccc(NC(=S)N/N=C(\CC)c2ccccn2)cc1`, the MST in the experiment with Plasmodium berghei [1] is 0.3 days; in the experiment on Plasmodium berghei [2] it was 0.5 days; in the experiment with Plasmodium berghei [3], 0.5 days.
With `C/C(=N\NC(=S)NCc1cccnc1)c1ccccn1`, the results for the MST in the experiment on Plasmodium berghei [1], with Plasmodium berghei [2] and in the experiment on Plasmodium berghei [3] were 0.1 days, 0.3 days and 0.6 days, respectively.
In the same order, the values of `CC/C(=N\NC(=S)NC(c1ccccc1)(c1ccccc1)c1ccccc1)c1ccccn1` are 0.1 days, 0.1 days and 0.3 days.
In the same order, the values of `CC/C(=N\NC(=S)Nc1ccc(Cl)cc1)c1ccccn1` are 0.3 days, 0.7 days and 1.1 days.
In the same order, the values of `C/C(=N\NC(=S)NCc1ccccc1Cl)c1ccccn1` are 0.3 days, 0.3 days and 1.9 days.
Consider `C/C(=N\NC(=S)NCc1ccc(C)c(C)c1)c1ccccn1`, for which the MST came to 0.3 days in the experiment with Plasmodium berghei [1], 0.1 days with Plasmodium berghei [2] and 2.1 days in the experiment on Plasmodium berghei [3].
In the same order, the values of `C/C(=N\NC(=S)Nc1ccccc1Br)c1ccccn1` are 0.1 days, 0.5 days and 0.9 days.
For `C/C(=N\NC(=S)Nc1cc(Cl)cc(Cl)c1)c1ccccn1` the same measures were -0.2 days, -0.2 days and 0 days.
For `COc1cc(NC(=S)N/N=C(\C)c2ccccn2)c2nccc(C)c2c1` the same measures were 0.1 days, 0.1 days and 0.3 days.
